In ChEMBL document CHEMBL3784951, “Discovery of (3-(4-(2-Oxa-6-azaspiro[3.3]heptan-6-ylmethyl)phenoxy)azetidin-1-yl)(5-(4-methoxyphenyl)-1,3,4-oxadiazol-2-yl)methanone (AZD1979), a Melanin Concentrating Hormone Receptor 1 (MCHr1) Antagonist with Favorable Physicochemical Properties” (J Med Chem, 2016):
≈ marks a conversion by molar mass, not a printed value.

How the values were obtained:
physchem [1] = test: physchem
in vitro [2] = details: human, microsomes
in vitro [3] = details: human, Caco-2
physchem [4] = details: buffer, pH 7.4
Mus musculus [5] = species: Mus musculus; test: animal or person; details: C57BL/6J
in vitro [6] = details: rat, microsomes
in vitro [7] = details: human, Caco-2; remark: listed apart in the source
physchem [8] = details: pH 7.4
Mus musculus [9] = species: Mus musculus; test: animal or person; details: C57BL/6J; remark: listed apart in the source

Row | Structure (SMILES) | pKa (physchem [1]) | microsomal CLint (in vitro [2]) [µL/min/mg] | Papp A→B (in vitro [3]) [×10⁻⁶ cm/s] | logD (physchem [4]) | IC50 (Mus musculus [5]) [nM] | microsomal CLint (in vitro [6]) [µL/min/mg] | efflux ratio (in vitro [7]) | solubility (physchem [8]) [µM] | IC50 (Mus musculus [9]) [nM]
1 | COc1ccc(-c2nnc(C(=O)N3CC(Oc4ccc(CN5CC6(CCCO6)C5)cc4)C3)o2)cc1 | 8.4 | 29 | 41 | 2.7 | 2 | – | – | – | –
2 | O=C(c1nnc(-c2ccccc2)o1)N1CC(Oc2ccc(CN3CC4(CCOC4)C3)cc2)C1 | 8.6 | 2 | – | 2.1 | – | – | – | – | –
3 | COc1ccc(-c2nnc(C(=O)N3CCC(Oc4ccc(CN5CCN(C)CC5)cc4)CC3)o2)cc1 | 8.5 | – | 56 | 2.5 | – | – | – | – | –
4 | COc1ccc(-c2nnc(C(=O)N3CC(Oc4ccc(CN(C)C)c(C)c4)C3)o2)cc1 | 9.3 | 22 | 54 | 2 | 1 | 149 | 0.3 | – | –
5 | COc1ccc(-c2nnc(C(=O)N3CC(Oc4ccc(CN(C)CC5(C)COC5)cc4)C3)o2)cc1 | 8 | 110 | – | 4.1 | – | – | – | – | –
6 | O=C(c1nnc(-c2ccccc2)o1)N1CC(Oc2ccc(CN3CC4(CCCO4)C3)cc2)C1 | 8.4 | 6 | – | 2.6 | – | – | – | – | –
7 | O=C(c1nnc(-c2ccc(Cl)cc2)o1)N1CCC(Oc2ccc(CN3CCCC3)cc2)CC1 | – | 13 | 43 | – | – | 17 | – | 70 (≈ 32.7 µg/mL) | –
8 | COc1ccc(-c2nnc(C(=O)N3CCC(Oc4ccc(CN5CCCC5)nc4)CC3)o2)cc1 | 9.1 | – | 31 | 1.8 | – | – | – | – | –
9 | CC1(O)CCN(Cc2ccc(OC3CN(C(=O)c4nnc(-c5ccccc5)o4)C3)cc2)C1 (stereo not given) | 9 | – | 34 | 1.45 | 146 | – | 0.26 | – | –
10 | Cn1nc(C(=O)N2CCC(Oc3ccc(CN4CCCC4)cc3)CC2)cc1-c1ccccc1 | – | 7 | – | 2.2 | – | – | – | 930 (≈ 413 µg/mL) | –
11 | COc1ccc(-c2nnc(C(=O)N3CC(Oc4ccc(CN5CC6(CCOC6)C5)cc4)C3)o2)cc1 | 8.6 | 14 | 60 | 2.2 | 2 | – | – | – | –
12 | O=C(c1nnc(-c2ccccc2Cl)o1)N1CCC(Oc2ccc(CN3CCCC3)cc2)CC1 | – | 13 | 59 | 2.7 | – | – | – | – | –
13 | COc1ccc(-c2nnc(C(=O)N3CC(Oc4ccc(CN5CCCOCC5)cc4)C3)o2)cc1 | 8.1 | 37 | 51 | 2.4 | – | – | – | – | –
14 | COc1ccc(-c2nnc(C(=O)N3CC(Oc4ccc(CN(C)C)cc4)C3)o2)cc1 | 8.9 | 17 | 67 | 1.55 | 14 | 53 | – | – | –
15 | COc1ccc(-c2nnc(C(=O)N3CC(Oc4ccc(CN5CCC(C)(O)C5)cc4)C3)o2)cc1 (stereo not given) | 9 | 2.8 | 42 | 1.6 | 35 | – | – | – | –
16 | O=C(c1cc(-c2ccccc2)on1)N1CCC(Oc2ccc(CN3CCCC3)cc2)CC1 | – | – | – | 3 | – | – | – | 198 (≈ 85.4 µg/mL) | –
17 | O=C(c1nnc(-c2ccccc2)o1)N1CCC(Oc2ccc(CN3CCCC3)cc2)CC1 | – | – | 55 | 2.2 | – | – | – | > 100 | –
18 | COc1ccc(-c2nnc(C(=O)N3CC(Oc4ccc(CN5CCN(C)CC5)c(F)c4)C3)o2)cc1 | 8.4 | 36 | 46 | 2.2 | – | – | 0.35 | – | –
19 | COc1ccc(-c2nnc(C(=O)N3CCC(Oc4ccc(CN5CC(O)C(C)(C)C5)cc4)CC3)o2)cc1 (stereo not given) | 8.9 | 19 | 34 | 2.6 | – | – | – | – | 91
20 | COc1ccc(-c2nnc(C(=O)N3CC(Oc4ccc(CN(C)C)cn4)C3)o2)cc1 | 8.5 | 13 | – | 1.8 | – | 145 | – | – | –
21 | COc1ccc(-c2nnc(C(=O)N3CCC(Oc4ccc(CN5CCC(O)C5)cc4)CC3)o2)cc1 (stereo not given) | 8.9 | – | 36 | 2 | – | – | – | – | 293

Now from value to compound:

Row | pKa (physchem [1]) | microsomal CLint (in vitro [2]) [µL/min/mg] | Papp A→B (in vitro [3]) [×10⁻⁶ cm/s] | logD (physchem [4]) | IC50 (Mus musculus [5]) [nM] | microsomal CLint (in vitro [6]) [µL/min/mg] | efflux ratio (in vitro [7]) | solubility (physchem [8]) [µM] | IC50 (Mus musculus [9]) [nM] | Structure (SMILES)
22 | – | 74 | – | 3.9 | – | – | – | – | – | COc1ccc(-c2nnc(C(=O)N3CC(Oc4ccc(CN5CCCC56COC6)cc4)C3)o2)cc1
23 | 7.5 | 332 | 51 | 3.3 | – | – | – | – | – | COc1ccc(-c2nnc(C(=O)N3CC(Oc4ccc(CN5CCOCC5)c(OC)c4)C3)o2)cc1
24 | 8.5 | 117 | – | 4 | – | – | – | – | – | CN(Cc1ccc(OC2CN(C(=O)c3nnc(-c4ccccc4)o3)C2)cc1)CC1(C)COC1
25 | – | – | 79 | 1.8 | 15 | – | – | – | – | O=C(c1nnc(-c2ccccc2)o1)N1CC(Oc2ccc(CN3CC4(COC4)C3)cc2)C1
26 | 9.2 | 24 | 49 | 2.3 | – | 28 | – | – | – | COc1ccc(-c2nnc(C(=O)N3CCC(Oc4ccc(CN5CCCC5)cn4)CC3)o2)cc1
27 | 8.5 | 51 | – | 2.3 | – | – | – | – | – | COc1ccc(-c2nnc(C(=O)N3CC(Oc4ccc(CN5CC(OC)C5)cc4)C3)o2)cc1
28 | – | – | 52 | 2.4 | – | – | – | > 100 | – | O=C(c1nnc(-c2ccc(F)cc2)o1)N1CCC(Oc2ccc(CN3CCCC3)cc2)CC1
29 | 8.6 | 42 | 62 | 2.2 | 9 | 218 | 0.32 | – | – | COc1ccc(-c2nnc(C(=O)N3CC(Oc4ccc(CN(C)C)c(F)c4)C3)o2)cc1
30 | – | – | – | 3 | – | – | – | 754 (≈ 336 µg/mL) | – | Cc1oc(-c2ccccc2)nc1C(=O)N1CCC(Oc2ccc(CN3CCCC3)cc2)CC1
31 | 8.4 | 20 | 46 | 2.1 | – | – | 0.35 | – | – | CN1CCN(Cc2ccc(OC3CN(C(=O)c4nnc(-c5ccccc5)o4)C3)cc2F)CC1
32 | – | 15 | 50 | 2.9 | – | – | – | – | – | O=C(c1nnc(-c2ccc(OC(F)F)cc2)o1)N1CCC(Oc2ccc(CN3CCCC3)cc2)CC1
